Experimental data from patent US9481871B2, “Nucleic acid encoding a polpeptide having aminotransferase activity, vectors and host cells comprising the nucleic acid” (KANEKA CORPORATION, priority 2010, dated 2016).
Read-outs that look alike come from different tables or passages of the source.

What was measured:
TAT [1] = assay: Specificity 2 to amino group donor: typical substrates of ω-amino acid transaminase; assay type: biochemical, Arthrobacter sp. KNK04-25; conditions: amino group donor 14 mM, 2-ketoglutaric acid 14 mM; for activity of the polypeptide for amino group donor (in words): pH 7.0; for Relative activity: pH 7.0, 30° C., 60 minutes, (S)-1-phenethylamine = 100
Method: (§1) Each reagent was added to the enzyme solution (100 μL each) so that the final concentrations were as specified in the following composition of the substrate solution. The volume of each reaction solution was adjusted to 400 μl with 0.1 M potassium phosphate buffer (pH 7.0). After 60 minutes of reaction at 30° C., 20 μL of 3N hydrochloric acid was added to stop the reaction. Next, 80 μL of a 0.2 M aqueous sodium carbonate solution and 200 μL of an acetone solution of 3.3 mg/mL Dabsyl chloride were each added to 20 μL of the thus obtained reaction solution, followed by 10 minutes of reaction at 70° C. Acetic acid (20 μL) was added to 50 μL of the reaction solution and then the solution was stirred. The resultant was analyzed by high performance liquid chromatography under the following conditions and thus the quantity of dabsylated glutamic acid was determined. In addition, the activity of an enzyme used in this assay was adjusted so that the amount of glutamic acid generated was 2.8 mM or less.
(§2) [Composition of Substrate Solution]
[High Performance Liquid Chromatography Analysis Conditions] • Column: YMC-Pack Pro C18 RS (YMC) • Eluent: acetonitrile/45 mM acetate buffer (pH 4.1)=35/65 (volume ratio) • Flow rate: 0.9 mL/minute • Detection: 254 nm • Column temperature: 30° C.

TAT [2] = assay type: biochemical, Arthrobacter sp. KNK04-25
TAT [3] = assay: Specificity to amino group donor (dabsylated glutamic acid, HPLC); assay type: biochemical, Arthrobacter sp. KNK04-25; conditions: amino group donor 14 mM, 2-ketoglutaric acid 14 mM; for activity of TAT for amino group donor (in words): pH 7.0; for Relative activity: pH 7.0, 30° C., 60 minutes, benzylamine = 100
Method: The substrate specificity of TAT to amino group donors was examined using the cell-free extracts obtained in Example 5.
as §1, with “solution (100 μL, each) so” for “solution (100 μL each) so”, “C., 20 μL, of 3N” for “C., 20 μL of 3N”, “Next, 80 μL, of a” for “Next, 80 μL of a”, “and 200 μL, of an” for “and 200 μL of an”, “to 20 μL, of the” for “to 20 μL of the”, “to 50 μL, of the” for “to 50 μL of the”
as §2
[High Performance Liquid Chromatography Analysis Conditions] • Column: Cosmosil 5C8-MS (NACALAI TESQUE, INC.) • Eluent: distilled water 2000 mL/acetonitrile 500 mL/methanol 500 ml/KH2PO4 6.1 g/H3PO4 2.5 g • Flow rate: 1 mL/minute • Detection: 254 nm • Column temperature: 30° C.

TAT [4] = assay: Specificity 3 to amino group donor with 1-benzyl-3-pyrrolidinone as receptor; assay type: biochemical, Arthrobacter sp. KNK04-25; conditions: amino group donor 290 mM, 1-benzyl-3-pyrrolidinone 29 mM; for Relative activity: pH 7.0, 30° C., 90 minutes, L-alanine = 100
Method: With the use of the cell-free extracts obtained in Example 5, the substrate specificity of TAT to an amino group donor was examined. Each reagent was added to enzyme solutions (200 μL each) so that the final concentrations were as specified in the following composition of the substrate solution. The volume of each reaction solution was adjusted to 400 μl with 0.1 M potassium phosphate buffer (pH 7.0). After 90 minutes of reaction at 30° C., 15 μL of 6N hydrochloric acid was added to stop the reaction. The thus obtained reaction solutions were analyzed by high performance liquid chromatography under the following conditions.
as §2
(§3) [High Performance Liquid Chromatography Quantitative Analysis Conditions] <Quantitative Analysis> • Column: Finepak SIL C18-T (JASCO Corporation) • Eluent: distilled water 945 mL/acetonitrile 555 mL/KH2PO4 7.5 g/SDS 2.16 g (adjusted with H3PO4 to pH 3.6) • Flow rate: 1 mL/minute • Detection: 254 nm • Column temperature: 40° C. <Analysis of Optical Purity>
Each reaction solution was treated with an appropriate amount of sodium carbonate so that it became basic, derivatized with dinitrobenzoyl chloride, and then analyzed under the following conditions. • Column: Chiralcel IA (Daicel Corporation) • Eluent: hexane/ethanol/diethylamine/acetonitrile=800/200/1/5 (volume ratio) • Flow rate: 0.8 mL/minute • Detection: 254 nm • Column temperature: 30° C.

[5] = Activity for 1-benzyl-3-pyrrolidinone and optical purity of generated (S)-1-benzyl-3-aminopyrrolidine; assay type: biochemical; conditions: 57 mM 1-benzyl-3-pyrrolidinone, 57 mM (S)-1-phenethylamine, pH 7.0, 30° C., 2 hours, cell-free extract
Method: (Method for Determination of Activity for 1-benzyl-3-pyrrolidinone and Method for Measurement of Optical Purity of Generated (S)-1-benzyl-3-aminopyrrolidine)
Activity to catalyze transamination by acting on optically active (S)-1-phenethylamine and 1-benzyl-3-pyrrolidinone, so as to generate acetophenone and (S)-1-benzyl-3-aminopyrrolidine was examined. Each reagent was added to each cell-free extract obtained in Example 5 so that the final concentrations were as specified in the following composition of the substrate solution. After 2 hours of reaction at 30° C., the reaction solution was analyzed by HPLC under the following conditions.
as §2
as §3, with “Chromatography” for “Chromatography Quantitative”, “Purity> […]” for “Purity>”

[6] = amino group receptor 14 mM, (S)-1-phenethylamine 14 mM, pH 7.0, 30° C., 60 minutes, 2-ketoglutaric acid = 100

NCCC(=O)O [β-alanine]
activity of the polypeptide for amino group donor (in words) (TAT [1]): did not exhibit activity | Relative activity (TAT [1]): 0%

COc1ccc2c(c1)CC(=O)CC2 [7-methoxy-2-tetralone]
Relative activity (TAT [2]; […], 2-ketoglutaric acid = 100): 0%

O=C1CN2CCC1CC2 [Quinuclidinone]
Relative activity (TAT [2]; pH 7): 0%

CCCCC(C)=O [2-hexanone]
Relative activity (TAT [2]; […], 2-ketoglutaric acid = 100): 4%

O=C(O)CC(=O)C(=O)O [Oxalacetic acid]
Relative activity (TAT [2]; […], 2-ketoglutaric acid = 100): 4%

C[C@H](N)c1ccccc1 [(S)-α-phenethylamine]
Relative activity (TAT [1]): 100%

NCc1ccccc1 [Benzylamine]
activity of TAT for amino group donor (in words) (TAT [3]): exhibited activity | Relative activity (TAT [3]): 100%

CC(=O)CCO [4-hydroxy butane-2-one]
Relative activity (TAT [2]; […], 2-ketoglutaric acid = 100): 0%

O=C1CCc2ccccc2C1 [2-tetralone]
Relative activity (TAT [2]; […], 2-ketoglutaric acid = 100): 1%

CCC(=O)CC(=O)OC [Methyl 3-oxovalerate]
Relative activity (TAT [2]; […], 2-ketoglutaric acid = 100): 4%

CCCCCC(C)=O [2-heptanone]
Relative activity (TAT [2]; […], 2-ketoglutaric acid = 100): 3%

O=CC(=O)O [Glyoxalic acid]
activity of the polypeptide for amino group receptor (in words) (TAT [2]): exhibited activity | Relative activity (TAT [2]; […], 2-ketoglutaric acid = 100): 40%

O=Cc1ccccc1 [Benzaldehyde]
Relative activity (TAT [2]; […], 2-ketoglutaric acid = 100): 70%

N[C@@H](CCC(=O)O)C(=O)O [L-glutamic acid]
activity of TAT for amino group donor compared with L-alanine (in words) (TAT [4]): higher activity | Relative activity (TAT [4]): 1650%

CCC(C)N (racemic) [±2-butylamine]
activity of TAT for amino group donor (in words) (TAT [3]): exhibited activity | Relative activity (TAT [3]): 7%

CCC(=O)CC#N [3-oxopentanenitrile]
Relative activity (TAT [2]; […], 2-ketoglutaric acid = 100): 0%

CCCC(=O)CC(=O)OC [Methyl 3-oxohexanoate]
Relative activity (TAT [2]; […], 2-ketoglutaric acid = 100): 4%

CCCC(=O)C(=O)O [2-keto-n-valeric acid]
Relative activity (TAT [2]; [6]): 3%

NCCCCN [Putrescine·2HCl]
activity of the polypeptide for amino group donor (in words) (TAT [1]): did not exhibit activity | Relative activity (TAT [1]): 0%

CCCC(C)=O [2-pentanone]
Relative activity (TAT [2]; […], 2-ketoglutaric acid = 100): 1%

O=C1CCN(Cc2ccccc2)C1 [1-benzyl-3-pyrrolidinone]
Relative activity (TAT [2]; […], 2-ketoglutaric acid = 100): 20%

N#CCC(=O)c1ccccc1 [α-cyanoacetophenone]
Relative activity (TAT [2]; […], 2-ketoglutaric acid = 100): 0%

CCCCN [n-butylamine]
activity of TAT for amino group donor (in words) (TAT [3]): exhibited activity | Relative activity (TAT [3]): 4%

CC(=O)C(=O)O [Pyruvic acid]
activity of the polypeptide for amino group receptor (in words) (TAT [2]): exhibited activity | Relative activity (TAT [2]; […], 2-ketoglutaric acid = 100): 10%

CCC(C)=O [2-butanone]
Relative activity (TAT [2]; […], 2-ketoglutaric acid = 100): 0%

NCCCCCC(=O)O [6-aminocaproic acid]
activity of the polypeptide for amino group donor (in words) (TAT [1]): did not exhibit activity | Relative activity (TAT [1]): 0%

O=C1CCCc2ccccc21 [1-tetralone]
Relative activity (TAT [2]; […], 2-ketoglutaric acid = 100): 1%

CCC(=O)C(=O)O [2-ketobutyric acid]
Relative activity (TAT [2]; […], 2-ketoglutaric acid = 100): 5%

O=C(Cc1ccccc1)c1ccccc1 [Benzyl phenyl ketone]
Relative activity (TAT [2]; [6]): 0%

NCCCCC(=O)O [5-aminovaleric acid]
activity of the polypeptide for amino group donor (in words) (TAT [1]): did not exhibit activity | Relative activity (TAT [1]): 0%

CCC(=O)CC [3-pentanone]
Relative activity (TAT [2]; […], 2-ketoglutaric acid = 100): 1%

C[C@H](N)C(=O)O [L-alanine]
Relative activity (TAT [4]): 100%

O=C(O)C(=O)Cc1ccccc1 [Phenylpyruvic acid]
Relative activity (TAT [2]; […], 2-ketoglutaric acid = 100): 8%

Cl.NCCC(N)C(=O)O (racemic) [±2,4-diaminobutyric acid·HCl]
activity of the polypeptide for amino group donor (in words) (TAT [1]): did not exhibit activity | Relative activity (TAT [1]): 0%

CC(C)=O [Acetone]
Relative activity (TAT [2]; […], 2-ketoglutaric acid = 100): 0%

O=C(O)CCC(=O)C(=O)O [2-ketoglutaric acid]
activity of the polypeptide for amino group receptor (in words) (TAT [2]; amino group receptor 14 mM, (S)-1-phenethylamine 14 mM): high activity | Relative activity (TAT [2]; [6]): 100%

CC(=O)c1ccccn1 [2-acetylpyridine]
Relative activity (TAT [2]; […], 2-ketoglutaric acid = 100): 60%

CCOC(=O)CC(C)=O [Ethyl acetoacetate]
Relative activity (TAT [2]; […], 2-ketoglutaric acid = 100): 2%

NCCCC(=O)O [4-aminobutyric acid]
activity of the polypeptide for amino group donor (in words) (TAT [1]): did not exhibit activity | Relative activity (TAT [1]): 0%

Cl.NCCCC[C@H](N)C(=O)O [L-lysine·HCl]
activity of the polypeptide for amino group donor (in words) (TAT [1]): did not exhibit activity | Relative activity (TAT [1]): 0%

CCCC=O [Butylaldehyde]
Relative activity (TAT [2]; [6]): 6%

CCCCC(=O)CC [3-heptanone]
Relative activity (TAT [2]; […], 2-ketoglutaric acid = 100): 5%

B1: TAT: polypeptide having transamination activity from Arthrobacter sp. KNK04-25; amino acid sequence SEQ ID NO: 1 (protein, listed as Arthrobacter sp.)
chain: MSAITLESSLATFTRRFDVSAKLTELGKEVVPGGYSRNSFNFGPHAIYVESGDGAYISTVEGHRLLDLNNNFTVNVLGHNHPSVQRTLRGSIETGVSFGNPVALETELAQLLVERIPSIERVQFSCSASESCMSAVRVARAFTGRTKIAKFEGGYHGFTDPLQVSWHPDHDGDCGPDDAPKAIPDSGGIPAEDVANVVVLTQNDGEGTERILRAHASEIACVIVELESASGGLVTLEQDYVESLRELTSELGIVLIFDETVTLRAGYQGMQGDYGVAPDLTVMGKIIGGGFPLGAVGGSAEIMSVLESGLVSISGTHHGHKIALAAGISTMRELTQGAFDRLNGMATRVMEELNDWSSQRGSSFAVYGKGISHLAYGFMREPGLSIRTHRDYWRNFDGTGTQICSLELANRGFFPVARGDFSLSLPMSDDDITAFVETTKEIVTGIES
conversion rate to (S)-1-benzyl-3-aminopyrrolidine [5]: 100% | optical purity of generated (S)-1-benzyl-3-aminopyrrolidine [5]: 100 % e.e.
